Source: patent publication US20170128518A1, “METHODS AND MATERIALS FOR IDENTIFYING AND TREATING MAMMALS RESISTANT TO PROTEASOME INHIBITOR TREATMENTS” (Mayo Foundation for Medical Education and Research, priority 2014, published 2017)
Entries after “also recorded” stand apart in the source; their conditions may differ.

How the values were obtained:
BCWM.1 cells [1] = test: Annexin-V apoptosis assay, BCWM.1; type: cell-based, human
Description: (§1) FIG. 18 is a series of representative heat density plots showing Annexin-V staining in BCWM.1 and BCWM.1/BR±b-AP15 treatment, indicating about 46% cell death in BCWM.1 cells (top panels) and about 42% cell death in BCWM.1/BR cells (bottom panels).
(§2) Apoptosis was measured using the Annexin V binding assay kit from BD Biosciences according to the manufacturer's instructions. Briefly, at the end of the treatment, cells were washed with PBS and 1×10^6 cells were re-suspended in 100 μl of binding buffer. Fluorescein isothiocycanate (FITC)-labelled Annexin V (5 μl) and propidium iodide (10μ were added to each sample and incubated in the dark for 15 minutes at room temperature. The cells were subsequently analyzed by flow cytometry using BD Accuri, the C6 flow cytometer and its software. Data from 10,000 events per sample were collected and analyzed.

BCWM.1/BR cells = test: Annexin-V apoptosis assay, BCWM.1/BR; type: cell-based, human
Description: as §1, §2

WM cells = test: Immunoblot analysis of WM cells; type: cell-based, human
Description: Total protein extracts were made using radioimmunoprecipitation assay lysis buffer (50 mmol/1 Tris containing 150 mmol/1 NaCl, 0.1% SDS, 1% TritonX-100, 1% sodium deoxycholate, pH 7.2) with 0.2% protease and phosphatase inhibitor cocktail (Sigma, St. Louis, Mo.) on ice for 40 minutes, vortexing for 5 seconds every 10 minutes. Following centrifugation at 18,400 g for 20 minutes, the supernatant was collected and used for Western blot analyses. Protein content in the extracts was measured by bicinchoninic acid protein assay reagent. Aliquots of 20 μg of total protein were boiled in Laemmli sample buffer, loaded onto 10% SDS-PAGE gels, and transferred onto a nitrocellulose membrane. Membranes were blocked for 1 hour in TBS/Tween 20 [TTBS] containing 1% nonfat dried milk and 1% BSA. Incubation with primary antibodies was done overnight at 4° C., followed by washing 3× with TTBS and incubation for 1 hour with HRP-conjugated secondary antibody. The blots were developed using chemiluminescence (Thermo Scientific, Rockford, Ill.).

[2] = target: T1, proteasome b1 subunit (caspase-like activity) (Homo sapiens, UniProt P28072); test: Proteasomal activity assay, caspase-like (LLE-AMC), WM cells; type: biochemical; conditions: 10 nM; BCWM.1 and BCWM.1/BR shown
T1 construct: Cells were lysed at 4×10^6 cells/ml in proteasomal activity assay buffer; endogenous in cells; host or cells: BCWM.1 and BCWM.1/BR (lysates)
Description: FIGS. 17A-17D are a series of graphs plotting the effects of bortezomib (10 nM), carfilzomib (10 nM) and b-AP15 (10 nM) on caspase-like and trypsin-like proteasomal activities, as assessed in three WT and three BR WM cell lines in vitro using the fluorogenic substrates LLE-AMC (caspase-like activity) and LRR-AMC (trypsin-like activity). Reactions were incubated at 37° C. for 1 hour and the fluorescence was measured at 360/460 and expressed as relative fluorescence units (RFU), using BioTek synergy HT plate reader. Data from two representative cell lines (BCWM.1 and its BR subclone) are shown.
(§3) Cells were lysed at 4×10^6 cells/ml in proteasomal activity assay buffer [assay buffer; 25 mmol/1 HEPES buffer, pH7.5 containing 0.5 mmol/1 EDTA, 0.05% Nonidet P-40, 0.01% sodium dodecyl sulfate (SDS)] and immediately used in the assay. Enzyme reactions were performed in 96-well plates with 100 μl of final volume containing […] fluorogenic peptide substrates. The substrates used were LLVY-AMC for chymotrypsin like activity, LLE-AMC for caspase-like activity and LRR-AMC for trypsin-like activity. Reactions were incubated at 37° C. for 1 hour and fluorescence was measured at 360/460 using a BioTek synergy HT plate reader (BioTek, Winooski, Vt.).

[3] = target: T2, 20S proteasome b5 subunit (Homo sapiens, UniProt P28074); test: Proteasomal activity assay, chymotrypsin-like (LLVY-AMC), WM cells; type: biochemical; conditions: 10 nmol/l; WT and BR WM cells
T2 construct: Cells were lysed at 4×10^6 cells/ml in proteasomal activity assay buffer; endogenous in cells; host or cells: BCWM.1, MWCL-1, RPCI-WM1 and their BR subclones (lysates)
T2 sequence (P28074 60-263): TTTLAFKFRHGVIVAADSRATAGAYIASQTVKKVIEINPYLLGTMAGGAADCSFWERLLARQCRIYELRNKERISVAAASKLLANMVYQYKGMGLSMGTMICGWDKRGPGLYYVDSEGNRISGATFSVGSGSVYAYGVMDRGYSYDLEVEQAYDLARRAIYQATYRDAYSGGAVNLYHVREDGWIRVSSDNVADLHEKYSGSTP
Description: FIGS. 10A and 10B are a series of graphs plotting the effect of b-AP15 treatment on 20S proteasome, b5-subunit (chymotrypsin-like) catalytic activity in WT and BR WM cells.
as §3

BCWM.1 cells [4] = test: Mitochondrial outer membrane permeability (TMRM), BCWM.1; type: cell-based, human
Description: FIG. 19 is a pair of histograms showing MOMP in representative WM models±b-AP15 treatment (BCWM.1 and BCWM.1/BR cells; one WT with its respective BR subclone). Black histogram represents control. Lines represent a shift in MOMP.
Cells were treated with different agents for 48 hours and assessed for MOMP using tetramethylrhodamine methyl ester [TMRM] (Life Technologies). TMRM was directly added to the cell cultures at 100 nmol/1 concentrations and incubated at 37° C. in the dark for 15 minutes. At the end of the incubation, cells were washed twice with cold PBS containing 2% FBS and analyzed. The cells were washed for fluorescence (FL2) and analyzed by BD Accuri, the C6 flow cytometer and its software. Data from at least 20,000 events per sample were collected and analyzed. TMRM-negative (%) cells were calculated to determine % MOMP.

T1 sequence (P28072 whole entry): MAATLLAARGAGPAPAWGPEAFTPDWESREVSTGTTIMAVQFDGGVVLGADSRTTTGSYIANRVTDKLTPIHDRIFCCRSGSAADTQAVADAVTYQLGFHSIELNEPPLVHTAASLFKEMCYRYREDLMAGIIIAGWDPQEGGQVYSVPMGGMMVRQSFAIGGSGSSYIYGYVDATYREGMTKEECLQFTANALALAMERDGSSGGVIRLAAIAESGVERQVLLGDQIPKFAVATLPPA

C=CC(=O)N1C/C(=C\c2ccc([N+](=O)[O-])cc2)C(=O)/C(=C/c2ccc([N+](=O)[O-])cc2)C1 [b-AP15]
cell death (Annexin-V staining) (BCWM.1 cells [1]): about 46% | cell death (Annexin-V staining) (BCWM.1/BR cells): about 42% | BCL2 protein (WM cells): No change | p-EIF2a expression (WM cells): did not appear to change | phosphorylated MAPK14 (p38) protein (WM cells; 6-hour treatment): significant increase | RELA nuclear protein levels (WM cells; 6 hours, BCWM.1 shown): marked reduction; also recorded: markedly reduced | MYC total and nuclear expression (WM cells; BCWM.1): reduced total and nuclear expression | EIF2AK3 (PERK) levels (WM cells; BR models): decreased EIF2AK3 levels | USP14 and UCHL5 protein expression (WM cells; WM cell lines (WT and BR), 0.5 and 1 μmol/l): no observable shift | PARP1 cleavage (WM cells; WM cell lines and primary WM tumor cells): confirming execution of apoptosis | TP53 protein (WM cells; WT and BR WM cells): marginal increase | HSPA1A protein (WM cells; all cell lines): further induced | ERN1a, XBP1u and XBP1s protein (WM cells; all models tested): significantly induced | total ubiquitinated cellular protein content (WM cells; dose-dependent): increasing amounts of high molecular weight polyubiquitinated conjugates | USP14 and UCHL5 protein expression (WM cells; primary CD19+/CD138+ WM cells, 0.5 μmol/l): did not change | p-MAPK3/MAPK1 (ERK1/2) (WM cells; wild type cell lines): increase | caspase-like proteasomal activity [2]: no change in caspase-like activity | chymotrypsin-like activity (LLVY) of the b5 subunit [3]: did not alter chymotryptic activity; also recorded: no loss of the chymotrypsin-like activity | increase in MOMP (BCWM.1 cells [4]): 57%
